Laboratory results as given in ChEMBL document CHEMBL1201862, “PubChem BioAssay data set” (2004).
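Tested at 5 concentrations; 48 h exposure; 96-well plates; endpoints linearly interpolated, else capped at highest concentration. At the GI50, growth is halved.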 Activity calls are given as the source filed them. No stated cut-off is given here; in the data, active = GI50 up to about 1.1 µM and inactive = higher.

Assays:
Assay in all cases: NCI anticancer screen, dose series, 48 h
CCRF-CEM = test system: CCRF-CEM
T47D = test system: T47D
NCI-H522 = test system: NCI-H522
SN12C = test system: SN12C
SF-539 = test system: SF-539
Malme-3M = test system: Malme-3M
MCF7 = test system: MCF7
HCT-116 = test system: HCT-116
IGROV-1 = test system: IGROV-1
M14 = test system: M14
COLO 205 = test system: COLO 205
OVCAR-5 = test system: OVCAR-5
CAKI-1 = test system: CAKI-1
HCT-15 = test system: HCT-15
MDA-MB-231 = test system: MDA-MB-231
HOP-62 = test system: HOP-62
MDA-N = test system: MDA-N
HL-60 = test system: HL-60
RPMI-8226 = test system: RPMI-8226
LOX IMVI = test system: LOX IMVI

Structure (SMILES) | GI50 (CCRF-CEM) | GI50 (T47D) | GI50 (NCI-H522) | GI50 (SN12C) | GI50 (SF-539) | GI50 (Malme-3M) | GI50 (MCF7) | GI50 (HCT-116) | GI50 (IGROV-1) | GI50 (M14) | GI50 (COLO 205) | GI50 (OVCAR-5) | GI50 (CAKI-1) | GI50 (HCT-15) [µM] | GI50 (MDA-MB-231) | GI50 (HOP-62) | GI50 (MDA-N) | GI50 (HL-60) | GI50 (RPMI-8226) | GI50 (LOX IMVI)
CCCCCCCCC/C=C1/CC(CO)(COC(=O)c2ccccc2)OC1=O (stereo not given) | 10.9 µM (inactive) | 11.5 µM (inactive) | 13.7 µM (inactive) | 12.5 µM (inactive) | 20.4 µM (inactive) | 6.92 µM (inactive) | 16.3 µM (inactive) | 23.2 µM (inactive) | 16.1 µM (inactive) | 14 µM (inactive) | 1.85 µM (inactive) | 12.2 µM (inactive) | 12.2 µM (inactive) | 16.3 | 12.6 µM (inactive) | 4.92 µM (inactive) | 6.01 µM (inactive) |  |  | 
O=C1NC2c3c(I)sc(I)c3C(O)C2O1 (stereo not given) | 52.8 µM (inactive) | > 100 µM (inactive) |  | > 100 µM (inactive) | > 100 µM (inactive) | > 100 µM (inactive) | > 100 µM (inactive) | > 100 µM (inactive) | > 100 µM (inactive) | > 100 µM (inactive) | > 100 µM (inactive) | > 100 µM (inactive) | > 100 µM (inactive) | > 100 | > 100 µM (inactive) | > 100 µM (inactive) | > 100 µM (inactive) | > 100 µM (inactive) | > 100 µM (inactive) | > 100 µM (inactive)
CCOC(=O)CCC(C(=O)OCC)n1nc2ccc(Nc3c(C)[n+]([O-])c4cc(F)c(OCC)cc4[n+]3[O-])cc2n1 (stereo not given) | > 100 µM (inactive) | 66.1 µM (inactive) | 30.8 µM (inactive) | 91.2 µM (inactive) | 22.5 µM (inactive) | > 100 µM (inactive) | 61.2 µM (inactive) | 50.8 µM (inactive) | 78.5 µM (inactive) | > 100 µM (inactive) | > 100 µM (inactive) | > 100 µM (inactive) | > 100 µM (inactive) | > 100 |  | 17.5 µM (inactive) | > 100 µM (inactive) | > 100 µM (inactive) | > 100 µM (inactive) | > 100 µM (inactive)
COC(=O)c1ccccc1C#CCCCOS(C)(=O)=O | > 10 µM (inactive) | > 10 µM (inactive) |  | > 10 µM (inactive) | > 10 µM (inactive) | > 10 µM (inactive) | > 10 µM (inactive) | > 10 µM (inactive) | > 10 µM (inactive) | > 10 µM (inactive) | > 10 µM (inactive) | > 10 µM (inactive) | > 10 µM (inactive) | > 10 | > 10 µM (inactive) | > 10 µM (inactive) | > 10 µM (inactive) | > 10 µM (inactive) | > 10 µM (inactive) | > 10 µM (inactive)
O=S(=O)(c1ccccc1)c1ccc(-c2nc(-c3ccc4c(c3)Sc3ccccc3S4)cs2)cc1 | 41.9 µM (inactive) | 61.8 µM (inactive) |  | > 100 µM (inactive) | 49.5 µM (inactive) | 39.5 µM (inactive) | 61 µM (inactive) | 73.3 µM (inactive) |  | 36.1 µM (inactive) | > 100 µM (inactive) | > 100 µM (inactive) | > 100 µM (inactive) | > 100 | 20.5 µM (inactive) | 15.9 µM (inactive) |  | > 100 µM (inactive) | > 100 µM (inactive) | > 100 µM (inactive)
O=C1CC(=O)n2cnc3cccc(c32)N1 | > 100 µM (inactive) | > 100 µM (inactive) |  | > 100 µM (inactive) | > 100 µM (inactive) | > 100 µM (inactive) | > 100 µM (inactive) | > 100 µM (inactive) | > 100 µM (inactive) | > 100 µM (inactive) | > 100 µM (inactive) | > 100 µM (inactive) | > 100 µM (inactive) | > 100 | > 100 µM (inactive) | > 100 µM (inactive) | > 100 µM (inactive) | > 100 µM (inactive) | > 100 µM (inactive) | 
COc1ccc(C2c3cc4c(cc3C(O)C3CCC(=O)N23)OCO4)cc1 (stereo not given) | > 100 µM (inactive) | > 100 µM (inactive) | > 100 µM (inactive) | > 100 µM (inactive) | > 100 µM (inactive) | > 100 µM (inactive) | > 100 µM (inactive) | > 100 µM (inactive) | > 100 µM (inactive) | > 100 µM (inactive) | > 100 µM (inactive) | > 100 µM (inactive) | > 100 µM (inactive) | > 100 |  | > 100 µM (inactive) | > 100 µM (inactive) | > 100 µM (inactive) | > 100 µM (inactive) | > 100 µM (inactive)
Nc1ncnc2c1ncn2C1CCC(CP(=O)(O)O)C1 (stereo not given) |  | > 100 µM (inactive) |  | > 100 µM (inactive) | > 100 µM (inactive) | > 100 µM (inactive) | > 100 µM (inactive) | > 100 µM (inactive) | > 100 µM (inactive) | > 100 µM (inactive) | > 100 µM (inactive) | > 100 µM (inactive) |  | > 100 | > 100 µM (inactive) | > 100 µM (inactive) | > 100 µM (inactive) | > 100 µM (inactive) | > 100 µM (inactive) | > 100 µM (inactive)
CNc1ncnc2c1ncn2C1C=CC(COS(N)(=O)=O)C1 (stereo not given) | > 100 µM (inactive) | > 100 µM (inactive) | > 100 µM (inactive) | > 100 µM (inactive) | > 100 µM (inactive) | > 100 µM (inactive) | > 100 µM (inactive) | > 100 µM (inactive) | > 100 µM (inactive) | > 100 µM (inactive) | > 100 µM (inactive) |  | > 100 µM (inactive) | > 100 |  | > 100 µM (inactive) | > 100 µM (inactive) | > 100 µM (inactive) | > 100 µM (inactive) | > 100 µM (inactive)
CN(c1c(Cl)cccc1Cl)S(=O)(=O)c1ccccc1[N+](=O)[O-] |  | > 100 µM (inactive) | > 100 µM (inactive) | > 100 µM (inactive) | > 100 µM (inactive) | > 100 µM (inactive) | > 100 µM (inactive) | > 100 µM (inactive) | > 100 µM (inactive) | > 100 µM (inactive) | > 100 µM (inactive) | > 100 µM (inactive) | > 100 µM (inactive) | > 100 |  | > 100 µM (inactive) | > 100 µM (inactive) | > 10 µM (inactive) | > 100 µM (inactive) | > 100 µM (inactive)
CN(C)c1ccc(C=C2N=C(c3ccccc3)N(c3cc(C(=O)c4ccccc4)ccc3N3C(=O)/C(=C/c4ccc(N(C)C)cc4)N=C3c3ccccc3)C2=O)cc1 | 3.49 µM (inactive) | 5.65 µM (inactive) |  | 58.7 µM (inactive) | 2.34 µM (inactive) |  | 3.33 µM (inactive) | 3.76 µM (inactive) | 5.86 µM (inactive) | 4.95 µM (inactive) | 3.74 µM (inactive) | 35.5 µM (inactive) | 14 µM (inactive) | 4.49 | 14.1 µM (inactive) | 20.7 µM (inactive) | 2.16 µM (inactive) | 5.01 µM (inactive) | 3.01 µM (inactive) | 5.98 µM (inactive)
Cc1cc2ccccc2c[n+]1CC(=O)CC([O-])(C(F)(F)F)C(F)(F)F | 90.8 µM (inactive) | > 100 µM (inactive) | 85.1 µM (inactive) | > 100 µM (inactive) | > 100 µM (inactive) | > 100 µM (inactive) |  | > 100 µM (inactive) | 41.3 µM (inactive) | > 100 µM (inactive) | > 100 µM (inactive) | > 100 µM (inactive) | > 100 µM (inactive) | > 100 | > 100 µM (inactive) | > 100 µM (inactive) | > 100 µM (inactive) | > 100 µM (inactive) | 69.7 µM (inactive) | > 100 µM (inactive)
O=C(Cn1c2ccc(Br)cc2c2nc3ccccc3nc21)N1CCOCC1 | > 100 µM (inactive) | 25.5 µM (inactive) |  | > 100 µM (inactive) |  | > 100 µM (inactive) |  | 50.2 µM (inactive) | 49.7 µM (inactive) | > 100 µM (inactive) | > 100 µM (inactive) | > 100 µM (inactive) | > 100 µM (inactive) | > 100 | 63.5 µM (inactive) | > 100 µM (inactive) | > 100 µM (inactive) |  | > 100 µM (inactive) | 39.8 µM (inactive)
Cc1ccc2c(=O)c3cccc(CC(=O)O)c3[nH]c2c1C | > 100 µM (inactive) |  | > 100 µM (inactive) | > 100 µM (inactive) | > 100 µM (inactive) | > 100 µM (inactive) | 71.6 µM (inactive) | > 100 µM (inactive) | > 100 µM (inactive) | > 100 µM (inactive) | > 100 µM (inactive) |  | > 100 µM (inactive) | > 100 | > 100 µM (inactive) | > 100 µM (inactive) | > 100 µM (inactive) | > 100 µM (inactive) | > 100 µM (inactive) | > 100 µM (inactive)
Cc1ccc(S(N)(=O)=O)cc1 [P-TOLUENESULFONAMIDE] | > 1000 µM (inactive) | > 1000 µM (inactive) | > 1000 µM (inactive) | > 1000 µM (inactive) | > 1000 µM (inactive) | > 1000 µM (inactive) | > 1000 µM (inactive) | > 1000 µM (inactive) | > 1000 µM (inactive) | > 1000 µM (inactive) | > 1000 µM (inactive) | > 1000 µM (inactive) |  | > 1000 |  | > 1000 µM (inactive) | > 1000 µM (inactive) | > 1000 µM (inactive) | > 1000 µM (inactive) | > 1000 µM (inactive)
